Results as given in US20090114877A1, “Composition Containing Stability-Improved Chloromethyl Phosphate Derivatve and Process for Producing Same” (Eisai R&D Management Co., Ltd., priority 2005, published 2009).

Assay: Evaluation of storage stability (P-NMR integration values before and after storage)
Procedure: Note that evaluation of storage stability can be carried out by calculation of peak area derived from Compound (6) by high performance liquid chromatography or calculation of integration value by P-NMR measurement before and after storage.
Using the resulting di-tert-butyl chlorophosphate, N-methylmorpholine (NMM) and N,N-diisopropyl ethylamine (iPr2EtN) were added at given concentrations as tertiary amines, prior to concentrating the organic layer containing the phosphate. Then, after storing at a temperature of 40° C. for 3 hours (3 hr) or 6 hours (6 hr), integration values of di-tert-butyl chlorophosphate before and after storage were measured by P-NMR measurements. Note that the storage test at 40° C. was carried out using EYELA ChemStation (temperature accuracy of ±1° C.) as thermoregulated bath.

[1] = 0 mol % NMM added, 40° C., 3 hours storage test, FIG. 2

For CC(C)(C)OP(=O)(OCCl)OC(C)(C)C [di-tert-butyl chlorophosphate, di-tert-butyl chloromethyl phosphate], the “amount of remaining di-tert-butyl chlorophosphate” value [1] was 34%, the “initial di-tert-butyl chlorophosphate decomposed” value [1] was 66% and the “amount of di-tert-butyl chlorophosphate remaining” value (1 mol % NMM added, 40° C., 3 hours storage test) was 34%. The “amount of di-tert-butyl chlorophosphate remaining” value (2.5 mol % NMM added, 40° C., 3 hours storage test) was 88%, the “decomposition of di-tert-butyl chlorophosphate on storage” value (from here on “decomposition”) (5 mol % NMM added, 40° C., 3 hours storage test, FIG. 2) was “not observed” and the “decomposition” value (5 mol % NMM added, stored at 40° C. for 3 hr or 6 hr, FIG. 1) was “no decomposition”. The “decomposition” value (5 mol % iPr2EtN added, stored at 40° C. for 3 hr or 6 hr, FIG. 1) was “no decomposition” and the “decomposition” value (10 mol % NMM added, storage at room temperature for 1.5 days) was “no decomposition”.
